Values after ≈ are worked out from the molar mass of the structure shown. Where a name gives a salt, the structure may show the parent alone.
Columns and labels:
[1] = Pharmacokinetic evaluation: edaravone in plasma after single oral administration to rats; type: in vivo, SD (Sprague-Dawley) rats; conditions: SD rats
Protocol: The pharmacokinetic test of the compounds of Examples and Reference Example was carried out as follows. That is, after a single oral administration of the test compound to SD (Sprague-Dawley) rats, the efficacy of the compound of the present invention was verified by tracking the kinetics of the edaravone released into the blood by metabolic processes and comparing it with a standard substance. Specifically, edaravone, a standard substance, was administered intravenously and orally, respectively, and the test compounds were administered orally. Then, the concentration of edaravone in blood was evaluated. The standard substance and the test compounds were each prepared in the same manner and then administered to rats at a dose of 0.1 mmol/kg, and blood was collected at a predetermined time and plasma was separated. Analysis of the drug was performed using HPLC (XBridge column Cis, Waters, mobile phase 0.1% formic acid:acetonitrile (30:70, %/%)) and MS/MS (ESI positive, MRM). Each commercial standard solution was mixed in a ratio of 9:1 with rat plasma to prepare and calibrate at concentrations of 5, 50, 100, 500, 1000 and 5000 ng/ml. In addition, the QC sample was prepared by mixing the rat plasma and the standard solution for QC at a ratio of 9:1, and at concentrations of 100, 750 and 2,500 ng/ml. In the pretreatment method, 100 μl of plasma sample was transferred to a tube for centrifugation, 10 μl of an internal standard solution and 300 μl of methanol were added, followed by mixing for about 30 seconds. The tube was centrifuged at 3,000×g (4° C.) for about 5 minutes, the supernatant was taken and transferred to an LC vial, and then injected into the instrument. In addition, the concentration of an active ingredient, that is, edaravone, in rat plasma was quantified by applying a previously validated analysis method. For pharmacokinetic parameters, WinNonlin 5.2 (Pharsight, USA) program was used, and AUC0-t, AUC0-∞, Cmax, Tmax, and t1/2 were calculated by noncompartment modeling (best fit). The pharmacokinetic parameter results were expressed as mean and standard deviation (SD), and statistically processed using the SPSS program (Statistical Package for the Social Sciences, 10.0K, USA).

[2] = in vivo; cited from earlier work
[3] = cited from earlier work
[4] = cited from earlier work; remark: listed apart in the source

Structure (SMILES) | oral bioavailability (in words) [1] | oral absorption rate (Fabs) [2] [%] | permeability (Peff) [3] [×10⁻⁶ cm/s] | solubility [4] [µg/mL]
Cc1cc(OC(=O)N2CCN(C(=O)[C@@H](N)C(C)C)[C@@H](C)C2)n(-c2ccccc2)n1.Cl [Example 14, (S)-3-methyl-1-phenyl-1H-pyrazol-5-yl 4-((S)-2-amino-3-methylbutanoyl)-3-methylpiperazin-1-carboxylate Hydrochloride] | excellent |  |  | 
Cc1cc(OC(=O)N2CCN(C(=O)[C@@H](N)C(C)C)CC2)n(-c2ccccc2)n1.Cl [Example 10, (S)-3-methyl-1-phenyl-1H-pyrazol-5-yl 4-(2-amino-3-methylbutanoyl)piperazine-1-carboxylate Hydrochloride] | excellent |  |  | 
Cc1cc(OC(=O)N2CCN(C(=O)[C@@H](N)CCCCN)CC2)n(-c2ccccc2)n1 [Example 19, (S)-3-methyl-1-phenyl-1H-pyrazol-5-yl 4-(2,6-diaminohexanoyl)piperazine-1-carboxylate Dihydrochloride] | excellent |  |  | 
CC1=NN(c2ccccc2)C(=O)C1 [edaravone] |  | 5.23 | 0.318 | 1850 (≈ 10.6 mM)
Cc1cc(OC(=O)N2CCN(C(=O)[C@@H](N)C(C)(C)C)CC2)n(-c2ccccc2)n1.Cl [Example 15, (S)-3-methyl-1-phenyl-1H-pyrazol-5-yl 4-(2-amino-3,3-dimethylbutanoyl)piperazine-1-carboxylate Hydrochloride] | excellent |  |  | 

Source: patent US11427547B2, “Edaravone prodrug compound and pharmaceutical use thereof in treatment or alleviation of neurodegenerative or motor neuron disease” (J2H BIOTECH INC., priority 2018, dated 2022)
